Measured values reported in ChEMBL document CHEMBL2074560, “cDNA cloning, functional characterization, and tissue distribution of an alternatively spliced variant of organic cation transporter hOCT2 predominantly expressed in the human kidney” (J Am Soc Nephrol, 2002).

Legend:
Type in all cases: functional, cell-based
[1] = biological target: T1, Solute carrier family 22 member 2 (Homo sapiens, UniProt O15244); test: TP_TRANSPORTER: inhibition of TEA uptake (TEA: 5 uM, MPP+: 1000 uM) in OCT2A-expressing HEK293 cells; settings: hek293, 1000 µM
T1 sequence (O15244 whole entry): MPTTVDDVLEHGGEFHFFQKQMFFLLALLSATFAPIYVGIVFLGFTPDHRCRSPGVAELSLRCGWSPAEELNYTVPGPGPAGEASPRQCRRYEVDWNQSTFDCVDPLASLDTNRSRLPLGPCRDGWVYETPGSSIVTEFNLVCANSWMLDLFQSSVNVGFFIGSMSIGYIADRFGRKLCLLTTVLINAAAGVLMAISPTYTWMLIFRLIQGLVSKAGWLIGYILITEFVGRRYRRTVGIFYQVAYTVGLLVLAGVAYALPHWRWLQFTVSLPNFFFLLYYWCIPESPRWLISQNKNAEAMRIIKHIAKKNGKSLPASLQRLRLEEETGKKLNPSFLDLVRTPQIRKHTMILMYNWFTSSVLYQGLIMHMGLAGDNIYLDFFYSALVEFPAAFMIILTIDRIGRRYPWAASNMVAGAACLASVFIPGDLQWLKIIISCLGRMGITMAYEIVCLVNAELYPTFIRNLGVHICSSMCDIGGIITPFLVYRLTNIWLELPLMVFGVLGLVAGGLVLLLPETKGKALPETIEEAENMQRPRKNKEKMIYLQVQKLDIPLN

[2] = biological target: T1, Solute carrier family 22 member 2; test: TP_TRANSPORTER: uptake in OCT2A-expressing HEK293 cells
[3] = biological target: T1, Solute carrier family 22 member 2; test: TP_TRANSPORTER: inhibition of TEA uptake (TEA: 5 uM, N-acetyl procainamide: 1000 uM) in OCT2-expressing HEK293 cells; settings: hek293, 1000 µM
[4] = biological target: T1, Solute carrier family 22 member 2; test: TP_TRANSPORTER: inhibition of TEA uptake (TEA: 5 uM, N-acetyl procainamide: 1000 uM) in OCT2A-expressing HEK293 cells; settings: hek293, 1000 µM
[5] = biological target: T1, Solute carrier family 22 member 2; test: TP_TRANSPORTER: inhibition of TEA uptake (TEA: 5 uM, Amantadine: 100 uM) in OCT2A-expressing HEK293 cells; settings: hek293, 100 µM
[6] = biological target: T1, Solute carrier family 22 member 2; test: TP_TRANSPORTER: inhibition of TEA uptake (TEA: 5 uM, Creatinine: 1000 uM) in OCT2A-expressing HEK293 cells; settings: hek293, 1000 µM
[7] = biological target: T1, Solute carrier family 22 member 2; test: TP_TRANSPORTER: inhibition of TEA uptake (TEA: 5 uM, Creatinine: 1000 uM) in OCT2-expressing HEK293 cells; settings: hek293, 1000 µM
[8] = biological target: T1, Solute carrier family 22 member 2; test: TP_TRANSPORTER: inhibition of TEA uptake (TEA: 5 uM, GPFX: 2500 uM) in OCT2A-expressing HEK293 cells; settings: hek293, 2500 µM
[9] = biological target: T1, Solute carrier family 22 member 2; test: TP_TRANSPORTER: inhibition of TEA uptake (TEA: 5 uM, GPFX: 2500 uM) in OCT2-expressing HEK293 cells; settings: hek293, 2500 µM
[10] = biological target: T1, Solute carrier family 22 member 2; test: TP_TRANSPORTER: inhibition of TEA uptake (TEA: 5 uM, Guanidine: 1000 uM) in OCT2A-expressing HEK293 cells; settings: hek293, 1000 µM
[11] = biological target: T1, Solute carrier family 22 member 2; test: TP_TRANSPORTER: inhibition of TEA uptake (TEA: 5 uM, Guanidine: 1000 uM) in OCT2-expressing HEK293 cells; settings: hek293, 1000 µM
[12] = biological target: T1, Solute carrier family 22 member 2; test: TP_TRANSPORTER: uptake in OCT2-expressing HEK293 cells
[13] = biological target: T1, Solute carrier family 22 member 2; test: TP_TRANSPORTER: inhibition of TEA uptake (TEA: 5 uM, Imipramine: 1000 uM) in OCT2A-expressing HEK293 cells; settings: hek293, 1000 µM
[14] = biological target: T1, Solute carrier family 22 member 2; test: TP_TRANSPORTER: inhibition of TEA uptake (TEA: 5 uM, Imipramine: 1000 uM) in OCT2-expressing HEK293 cells; settings: hek293, 1000 µM
[15] = biological target: T1, Solute carrier family 22 member 2; test: TP_TRANSPORTER: inhibition of TEA uptake (TEA: 5 uM, Levofloxacin: 2500 uM) in OCT2A-expressing HEK293 cells; settings: hek293, 2500 µM
[16] = biological target: T1, Solute carrier family 22 member 2; test: TP_TRANSPORTER: inhibition of TEA uptake (TEA: 5 uM, Levofloxacin: 2500 uM) in OCT2-expressing HEK293 cells; settings: hek293, 2500 µM
[17] = biological target: T1, Solute carrier family 22 member 2; test: TP_TRANSPORTER: inhibition of TEA uptake (TEA: 5 uM, NMN: 1000 uM) in OCT2A-expressing HEK293 cells; settings: hek293, 1000 µM
[18] = biological target: T1, Solute carrier family 22 member 2; test: TP_TRANSPORTER: inhibition of TEA uptake (TEA: 5 uM, Noradrenaline: 1000 uM) in OCT2A-expressing HEK293 cells; settings: hek293, 1000 µM
[19] = biological target: T1, Solute carrier family 22 member 2; test: TP_TRANSPORTER: inhibition of TEA uptake (TEA: 5 uM, Noradrenaline: 1000 uM) in OCT2-expressing HEK293 cells; settings: hek293, 1000 µM
[20] = biological target: T1, Solute carrier family 22 member 2; test: TP_TRANSPORTER: inhibition of TEA uptake (TEA: 5 uM, Procainamide: 1000 uM) in OCT2A-expressing HEK293 cells; settings: hek293, 1000 µM
[21] = biological target: T1, Solute carrier family 22 member 2; test: TP_TRANSPORTER: inhibition of TEA uptake (TEA: 5 uM, Procainamide: 1000 uM) in OCT2-expressing HEK293 cells; settings: hek293, 1000 µM
[22] = biological target: T1, Solute carrier family 22 member 2; test: TP_TRANSPORTER: inhibition of TEA uptake (TEA: 5 uM, Serotonin: 1000 uM) in OCT2A-expressing HEK293 cells; settings: hek293, 1000 µM
[23] = biological target: T1, Solute carrier family 22 member 2; test: TP_TRANSPORTER: inhibition of TEA uptake (TEA: 5 uM, Serotonin: 1000 uM) in OCT2-expressing HEK293 cells; settings: hek293, 1000 µM

With `C[n+]1ccc(-c2ccccc2)cc1` the Activity [1] was “inhibitor [(at a rough estimate) 5 % of control]” and the Activity [2] was “substrate [+]”.
With `CCN(CC)CCNC(=O)c1ccc(NC(C)=O)cc1` [ACECAINIDE] the Activity [3] was “is not an inhibitor [-]” and the Activity [4] was “inhibitor [(at a rough estimate) 15 % of control]”.
In the case of `NC12CC3CC(CC(C3)C1)C2` [AMANTADINE], the Activity [5] is reported as “inhibitor [(at a rough estimate) 5 % of control]”.
For `CN/C(=N/CCSCc1nc[nH]c1C)NC#N` [CIMETIDINE], the Activity [2] was “is not a substrate [-]”.
In the case of `CN1CC(=O)NC1=N` [CREATININE], the Activity [6] is reported as “inhibitor [(at a rough estimate) 95 % of control]” and the Activity [7] is reported as “inhibitor [(at a rough estimate) 80 % of control]”.
In the case of `Cc1c(F)c(N2CCNC(C)C2)cc2c1c(=O)c(C(=O)O)cn2C1CC1` (centres undefined) [GREPAFLOXACIN], the Activity [8] is reported as “inhibitor [(at a rough estimate) 5 % of control]” and the Activity [9] is reported as “inhibitor [(at a rough estimate) 30 % of control]”.
With `N=C(N)N` [GUANIDINE] the Activity [10] was “inhibitor [(at a rough estimate) 80 % of control]”, the Activity [11] was “inhibitor [(at a rough estimate) 60 % of control]” and the Activity [2] was “is not a substrate [-]”. For the same molecule, the Activity [12] was “substrate [+]”.
With `CN(C)CCCN1c2ccccc2CCc2ccccc21` [IMIPRAMINE] the Activity [13] was “inhibitor [(at a rough estimate) 5 % of control]” and the Activity [14] was “inhibitor [(at a rough estimate) 10 % of control]”.
For `C[C@H]1COc2c(N3CCN(C)CC3)c(F)cc3c(=O)c(C(=O)O)cn1c23.C[C@H]1COc2c(N3CCN(C)CC3)c(F)cc3c(=O)c(C(=O)O)cn1c23.O` [LEVOFLOXACIN], the Activity [15] was “inhibitor [(at a rough estimate) 25 % of control]”, the Activity [16] was “is not an inhibitor [-]” and the Activity [2] was “is not a substrate [-]”. The Activity [12] was “is not a substrate [-]”.
In the case of `CNC(=O)c1cccnc1` [NICOTINYL METHYLAMIDE], the Activity [17] is reported as “inhibitor [(at a rough estimate) 30 % of control]”.
With `NC[C@H](O)c1ccc(O)c(O)c1` [NOREPINEPHRINE] the Activity [18] was “is not an inhibitor [-]” and the Activity [19] was “inhibitor [(at a rough estimate) 65 % of control]”.
`CCN(CC)CCNC(=O)c1ccc(N)cc1` [PROCAINAMIDE] was tested, and the Activity [20] was “inhibitor [(at a rough estimate) 15 % of control]” and the Activity [21] was “is not an inhibitor [-]”.
With `NCCc1c[nH]c2ccc(O)cc12` [SEROTONIN] the Activity [22] was “inhibitor [(at a rough estimate) 35 % of control]” and the Activity [23] was “inhibitor [(at a rough estimate) 55 % of control]”.
For `Cc1cn([C@H]2C[C@H](N=[N+]=[N-])[C@@H](CO)O2)c(=O)[nH]c1=O` [ZIDOVUDINE], the Activity [2] was “is not a substrate [-]” and the Activity [12] was “is not a substrate [-]”.
